According to US8883745B2, “C—glycolipids with enhanced Th-1 profile” (New York University, priority 2006, dated 2014):

Legend:
Format in all cases: in vivo
IFN-γ [1] = assay: IFN-γ levels in sera upon i.v. glycolipid administration to BALB/c mice (ELISA); parameters: IFN-γ levels, test 1 / IFN-γ levels, test 2 / IFN-γ levels, average / IFN-γ levels, Total: unit not given here; details: BALB/c
Outline: (§1)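 Mice were injected intravenously with 1 μg of each glycolipid diluted in PBS, and sera were taken at 0, 2, 6, 12, 24, 48 and 72 h. Serum cytokines were then measured by ELISA against a standard curve.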

IFN-γ [2] = assay: IFN-γ levels in sera upon i.v. glycolipid administration to C57BL/6 mice (ELISA); parameters: IFN-γ levels, test 1 / IFN-γ levels, test 2 / IFN-γ levels, average / IFN-γ levels, Total / IFN-γ (B6): unit not given here
Outline: as §1

IL-12 = IL-12 levels in sera upon i.v. glycolipid administration to C57BL/6 mice (ELISA); parameters: IL-12 levels, test 1 / IL-12 levels, test 2 / IL-12 levels, average / IL-12 levels, Total: unit not given here
Outline: as §1

IL-4 = IL-4 levels in sera upon i.v. glycolipid administration to C57BL/6 mice (ELISA); parameters: unit not given here
Outline: as §1

[3] = C57BL/6, ratio calculated from Tables 1-6
[4] = C57BL/6, serum, total over hours 0-72

CCCCCCCCCCCCCCCCCCCCCCCCCC(=O)N[C@@H](CC[C@H]1O[C@H](CO)[C@H](O)[C@H](O)[C@H]1O)[C@H](O)[C@H](O)CCCCCCCCCCCCCC [CRONY, reference compound]
IFN-γ/IL-4 (BALB/c) (IFN-γ [1]; ratio calculated from Tables 1-6): 34
IFN-γ levels, average (IFN-γ [1]; serum, hour 0): 27
IFN-γ levels, test 1 (IFN-γ [1]; serum, hour 0): 27
IFN-γ levels, test 2 (IFN-γ [1]; serum, hour 0): 27
IFN-γ levels, average (IFN-γ [1]; serum, hour 2): 150
IFN-γ levels, test 1 (IFN-γ [1]; serum, hour 2): 122
IFN-γ levels, test 2 (IFN-γ [1]; serum, hour 2): 178
IFN-γ levels, average (IFN-γ [1]; serum, hour 6): 3075.5
IFN-γ levels, test 1 (IFN-γ [1]; serum, hour 6): 3114
IFN-γ levels, test 2 (IFN-γ [1]; serum, hour 6): 3037
IFN-γ levels, average (IFN-γ [1]; serum, hour 12): 5611
IFN-γ levels, test 1 (IFN-γ [1]; serum, hour 12): 6314
IFN-γ levels, test 2 (IFN-γ [1]; serum, hour 12): 4908
IFN-γ levels, average (IFN-γ [1]; serum, hour 24): 10680
IFN-γ levels, test 1 (IFN-γ [1]; serum, hour 24): 11900
IFN-γ levels, test 2 (IFN-γ [1]; serum, hour 24): 9460
IFN-γ levels, average (IFN-γ [1]; serum, hour 48): 334
IFN-γ levels, test 1 (IFN-γ [1]; serum, hour 48): 320
IFN-γ levels, test 2 (IFN-γ [1]; serum, hour 48): 348
IFN-γ levels, average (IFN-γ [1]; serum, hour 72): 59.5
IFN-γ levels, test 1 (IFN-γ [1]; serum, hour 72): 50
IFN-γ levels, test 2 (IFN-γ [1]; serum, hour 72): 69
IFN-γ levels, Total (IFN-γ [1]; serum, total over hours 0-72): 19938
IFN-γ/IL-4 (B6) (IFN-γ [2]; [3]): 17
IFN-γ levels, average (IFN-γ [2]; C57BL/6, serum, hour 0): 31
IFN-γ levels, test 1 (IFN-γ [2]; C57BL/6, serum, hour 0): 31
IFN-γ levels, test 2 (IFN-γ [2]; C57BL/6, serum, hour 0): 31
IFN-γ levels, average (IFN-γ [2]; C57BL/6, serum, hour 2): 355.5
IFN-γ levels, test 1 (IFN-γ [2]; C57BL/6, serum, hour 2): 359
IFN-γ levels, test 2 (IFN-γ [2]; C57BL/6, serum, hour 2): 352
IFN-γ levels, average (IFN-γ [2]; C57BL/6, serum, hour 6): 1094.5
IFN-γ levels, test 1 (IFN-γ [2]; C57BL/6, serum, hour 6): 1083
IFN-γ levels, test 2 (IFN-γ [2]; C57BL/6, serum, hour 6): 1106
IFN-γ levels, average (IFN-γ [2]; C57BL/6, serum, hour 12): 2512.5
IFN-γ levels, test 1 (IFN-γ [2]; C57BL/6, serum, hour 12): 2667
IFN-γ levels, test 2 (IFN-γ [2]; C57BL/6, serum, hour 12): 2358
IFN-γ levels, average (IFN-γ [2]; C57BL/6, serum, hour 24): 6589.5
IFN-γ levels, test 1 (IFN-γ [2]; C57BL/6, serum, hour 24): 6511
IFN-γ levels, test 2 (IFN-γ [2]; C57BL/6, serum, hour 24): 6668
IFN-γ levels, average (IFN-γ [2]; C57BL/6, serum, hour 48): 777.5
IFN-γ levels, test 1 (IFN-γ [2]; C57BL/6, serum, hour 48): 798
IFN-γ levels, test 2 (IFN-γ [2]; C57BL/6, serum, hour 48): 757
IFN-γ levels, average (IFN-γ [2]; C57BL/6, serum, hour 72): 290
IFN-γ levels, test 1 (IFN-γ [2]; C57BL/6, serum, hour 72): 279
IFN-γ levels, test 2 (IFN-γ [2]; C57BL/6, serum, hour 72): 301
IFN-γ levels, Total (IFN-γ [2]; [4]): 11653
IFN-γ (B6) (IFN-γ [2]; C57BL/6, total from Table 2): 11652
IL-12/IL-4 (B6) (IL-12; [3]): 2
IL-12 levels, average (IL-12; C57BL/6, serum, hour 0): 5
IL-12 levels, test 1 (IL-12; C57BL/6, serum, hour 0): 5
IL-12 levels, test 2 (IL-12; C57BL/6, serum, hour 0): 5
IL-12 levels, average (IL-12; C57BL/6, serum, hour 2): 107
IL-12 levels, test 1 (IL-12; C57BL/6, serum, hour 2): 0
IL-12 levels, test 2 (IL-12; C57BL/6, serum, hour 2): 214
IL-12 levels, average (IL-12; C57BL/6, serum, hour 6): 472.5
IL-12 levels, test 1 (IL-12; C57BL/6, serum, hour 6): 560
IL-12 levels, test 2 (IL-12; C57BL/6, serum, hour 6): 385
IL-12 levels, average (IL-12; C57BL/6, serum, hour 12): 675.5
IL-12 levels, test 1 (IL-12; C57BL/6, serum, hour 12): 630
IL-12 levels, test 2 (IL-12; C57BL/6, serum, hour 12): 721
IL-12 levels, average (IL-12; C57BL/6, serum, hour 24): 117.5
IL-12 levels, test 1 (IL-12; C57BL/6, serum, hour 24): 235
IL-12 levels, test 2 (IL-12; C57BL/6, serum, hour 24): 0
IL-12 levels, average (IL-12; C57BL/6, serum, hour 48): 0
IL-12 levels, test 1 (IL-12; C57BL/6, serum, hour 48): 0
IL-12 levels, test 2 (IL-12; C57BL/6, serum, hour 48): 0
IL-12 levels, average (IL-12; C57BL/6, serum, hour 72): 0
IL-12 levels, test 1 (IL-12; C57BL/6, serum, hour 72): 0
IL-12 levels, test 2 (IL-12; C57BL/6, serum, hour 72): 0
IL-12 levels, Total (IL-12; [4]): 1379
IL-4 level, average (IL-4; hour 0): 46
IL-4 level, test 1 (IL-4; hour 0): 46
IL-4 level, test 2 (IL-4; hour 0): 46
IL-4 level, average (IL-4; hour 2): 464
IL-4 level, test 1 (IL-4; hour 2): 286
IL-4 level, test 2 (IL-4; hour 2): 642
IL-4 level, average (IL-4; hour 6): 73
IL-4 level, test 1 (IL-4; hour 6): 48
IL-4 level, test 2 (IL-4; hour 6): 98
IL-4 level, average (IL-4; hour 12): 34
IL-4 level, test 1 (IL-4; hour 12): 12
IL-4 level, test 2 (IL-4; hour 12): 56
IL-4 level, average (IL-4; hour 24): 23
IL-4 level, test 1 (IL-4; hour 24): 16
IL-4 level, test 2 (IL-4; hour 24): 30
IL-4 level, average (IL-4; hour 48): 11.5
IL-4 level, test 1 (IL-4; hour 48): 17
IL-4 level, test 2 (IL-4; hour 48): 6
IL-4 level, average (IL-4; hour 72): 21.5
IL-4 level, test 1 (IL-4; hour 72): 15
IL-4 level, test 2 (IL-4; hour 72): 28
IL-4 level, Total (IL-4; total over hours 0-72): 674
